Values joined by “and” are separate entries in the source; they are usually repeats but may differ in a detail not shown here. Equal values may be shown once.
Assay: xn = mol fraction of the nth substance listed

CCCCCCCCCCCC + CCCCCCC
Conditions	viscosity
298 K, 101 kPa, x1 = 0.5	0.7879 mPa·s and 0.7868 mPa·s
298.15 K, 101.33 kPa, x2 = 0.1076	1.219 mPa·s
298.15 K, 101.33 kPa, x2 = 0.2092	1.086 mPa·s
298.15 K, 101.33 kPa, x2 = 0.3109	0.9598 mPa·s
298.15 K, 101.33 kPa, x2 = 0.4064	0.8662 mPa·s
298.15 K, 101.33 kPa, x2 = 0.5062	0.7707 mPa·s
298.15 K, 101.33 kPa, x2 = 0.6081	0.6772 mPa·s
298.15 K, 101.33 kPa, x2 = 0.7046	0.5964 mPa·s
298.15 K, 101.33 kPa, x2 = 0.8043	0.5157 mPa·s
298.15 K, 101.33 kPa, x2 = 0.9039	0.4454 mPa·s
318 K, 101 kPa, x1 = 0.5	0.6058 mPa·s and 0.6054 mPa·s

CCCCCCCCCCO + CCCCCCC
viscosity [mPa·s], 101.33 kPa
Conditions	298.15 K	308.15 K
x1 = 0.0386	0.4346	0.3825
x1 = 0.0772	0.4872	0.4312
x1 = 0.1584	0.642	0.5562
x1 = 0.2472	0.8698	0.7324
x1 = 0.3368	1.225	1.034
x1 = 0.4264	1.647	1.331
x1 = 0.5326	2.338	1.903
x1 = 0.6364	3.29	2.7
x1 = 0.7498	5.08	3.93
x1 = 0.8055	5.926	4.829
x1 = 0.8688	7.145	5.938
x1 = 0.9331	8.722	6.788

CCCCCCCCCCCC + CCCCCCCC
Conditions	viscosity
298.15 K, 101.33 kPa, x2 = 0.1117	1.233 mPa·s
298.15 K, 101.33 kPa, x2 = 0.2101	1.138 mPa·s
298.15 K, 101.33 kPa, x2 = 0.3025	1.038 mPa·s
298.15 K, 101.33 kPa, x2 = 0.4085	0.9477 mPa·s
298.15 K, 101.33 kPa, x2 = 0.5069	0.8672 mPa·s
298.15 K, 101.33 kPa, x2 = 0.6088	0.7703 mPa·s
298.15 K, 101.33 kPa, x2 = 0.7035	0.71 mPa·s
298.15 K, 101.33 kPa, x2 = 0.804	0.6353 mPa·s
298.15 K, 101.33 kPa, x2 = 0.9048	0.5647 mPa·s
298.2 K, 100 kPa, x2 = 0.5	0.869 mPa·s
323.15 K, 100 kPa, x2 = 0.434	0.658 mPa·s and 0.657 mPa·s
323.15 K, 100 kPa, x2 = 0.743	0.502 mPa·s and 0.501 mPa·s

CCCCCCCCCCO + CCCCCCCC
298.15 K, 101.3 kPa
Conditions	viscosity [mPa·s]
x1 = 0.0592	0.601
x1 = 0.11	0.678
x1 = 0.1555	0.769
x1 = 0.2012	0.876
x1 = 0.2553	1.032
x1 = 0.303	1.194
x1 = 0.4085	1.665
x1 = 0.5085	2.311
x1 = 0.6109	3.244
x1 = 0.7126	4.541
x1 = 0.7879	5.827
x1 = 0.8535	7.233
x1 = 0.9129	8.795
x1 = 0.9391	9.583

CCOC(=O)OCC + CCCCCCCC
298.15 K, 101.3 kPa
Conditions	viscosity [mPa·s]
x1 = 0.0224	0.517
x1 = 0.0828	0.509
x1 = 0.1137	0.508
x1 = 0.1181	0.508
x1 = 0.1535	0.508
x1 = 0.1753	0.507
x1 = 0.3802	0.529
x1 = 0.4893	0.549
x1 = 0.5834	0.572
x1 = 0.6904	0.6
x1 = 0.8119	0.645
x1 = 0.8465	0.659
x1 = 0.8953	0.681
x1 = 0.9679	0.727

CCCCCCCCCCCC + CCCCCCCCCC
298.15 K, 101.33 kPa
Conditions	viscosity [mPa·s]
x2 = 0.1071	1.294
x2 = 0.2012	1.243
x2 = 0.3014	1.198
x2 = 0.4079	1.146
x2 = 0.5077	1.092
x2 = 0.6096	1.036
x2 = 0.7085	0.9801
x2 = 0.8052	0.9488
x2 = 0.9045	0.9028

CCCCCCCCCCO + CCCCCCCCCC
298.15 K, 101.3 kPa
Conditions	viscosity [mPa·s]
x1 = 0.0518	0.924
x1 = 0.1069	1.021
x1 = 0.1649	1.168
x1 = 0.2141	1.308
x1 = 0.2591	1.457
x1 = 0.3013	1.618
x1 = 0.4008	2.078
x1 = 0.5047	2.74
x1 = 0.6063	3.619
x1 = 0.6847	4.535
x1 = 0.8044	6.474
x1 = 0.8482	7.392
x1 = 0.8943	8.5
x1 = 0.9494	10.05

CCOC(=O)OCC + CCCCCCCCCCCC
298.15 K, 101.3 kPa
Conditions	viscosity [mPa·s]
x1 = 0.0152	1.301
x1 = 0.0779	1.228
x1 = 0.1327	1.18
x1 = 0.1841	1.133
x1 = 0.2993	1.047
x1 = 0.4701	0.942
x1 = 0.6163	0.86
x1 = 0.7539	0.793
x1 = 0.9071	0.745
x2 = 0.014	0.741

CCCCCCCCCCO + CCCCCCCCCCCCCCCC
100 kPa, x2 = 0.0921
Conditions	viscosity [mPa·s]
298.2 K	9.77
308.2 K	6.71
318.2 K	4.76

CC(C)[C@@H]1CC[C@@H](C)C[C@H]1O + CCCCCCCCCCO
Conditions	viscosity [mPa·s]
298.15 K, 101.33 kPa, x1 = 0.5	21.24

Cc1ccccc1C + CCCCCCCCCCO
viscosity [mPa·s], 101 kPa
Conditions	298.15 K	308.15 K
x1 = 0.0766	9.611	6.581
x1 = 0.1331	8.188	5.606
x1 = 0.1823	7.108	4.864
x1 = 0.2509	5.802	3.987
x1 = 0.3173	4.749	3.288
x1 = 0.3896	3.813	2.671
x1 = 0.4556	3.107	2.214
x1 = 0.5261	2.509	1.815
x1 = 0.6054	1.983	1.459
x1 = 0.6597	1.695	1.264
x1 = 0.7364	1.374	1.041
x1 = 0.8029	1.156	0.895
x1 = 0.873	0.977	0.781
x1 = 0.9447	0.84	0.698

CC(C)[C@@H]1CC[C@@H](C)C[C@H]1O + CCCCCCCCCO
Conditions	viscosity [mPa·s]
298.15 K, 101.33 kPa, x1 = 0.5	35.03

CC(C)[C@@H]1CC[C@@H](C)C[C@H]1O + CCCCCCCCO
Conditions	viscosity [mPa·s]
298.15 K, 101.33 kPa, x1 = 0.5	13.1

CCCCCCCCCCO + CCCCCCCCO
viscosity [mPa·s], 101.8 kPa
Conditions	x2 = 0.1199	x2 = 0.3407	x2 = 0.5487	x2 = 0.7394	x2 = 0.918
298.15 K	11.14	10.21	9.324	8.588	7.888
308.15 K	7.791	7.162	6.608	6.092	5.658
318.15 K	5.571	5.156	4.78	4.438	4.135

CN1CCN(C)C1=O + CCCCCCCCn1cc[n+](C)c1.[Cl-]
100 kPa
Conditions	viscosity [mPa·s]
293.15 K, x2 = 0.6016	985.8
313.15 K, x2 = 0.7994	773.5
318.15 K, x2 = 0.105	3.715
323.15 K, x2 = 0.7994	404.5

CC(C)[C@@H]1CC[C@@H](C)C[C@H]1O + CCCCCCCO
Conditions	viscosity [mPa·s]
298.15 K, 101.33 kPa, x1 = 0.5	27.53
